Reference: patent US4200744A, “Substituted 7α-methoxy-7β[(2,3-dioxo-1-piperazinyl)carbonylaminophenylace tamido]cephalosporins” (Toyama Chemical Company, Limited, priority 1977, dated 1980)

How the values were obtained:
[1] = tested on: Proteus vulgaris GN 76 (Cephalosporinase-producing bacterium); assay: MIC by plate method; format: cell-based; set-up: unit not given here; settings: Heart Infusion agar pH 7.4, inoculum 10^4 cells per plate (10^6 cells/ml)
Procedure: (§1) The minimum inhibitory concentration (MIC) was determined by the plate method disclosed in "Chemotherapy" (Japan), Vol. 16, (1968), pages 98-99. The culture medium used was a Heart Infusion agar (pH 7.4). The number of the cells per plate used in the inoculum was 10^4 (10^6 cells/ml).

Escherichia coli NIHJ = assay: MIC by plate method; format: cell-based; set-up: unit not given here; settings: Heart Infusion agar pH 7.4, inoculum 10^4 cells per plate (10^6 cells/ml)
Procedure: as §1

Serratia marcescens W-8 = assay: MIC by plate method; format: cell-based; set-up: unit not given here; settings: Heart Infusion agar pH 7.4, inoculum 10^4 cells per plate (10^6 cells/ml)
Procedure: as §1

[2] = tested on: Citrobacter freundii GN 346 (Cephalosporinase-producing bacterium); assay: MIC by plate method; format: cell-based; set-up: unit not given here; settings: Heart Infusion agar pH 7.4, inoculum 10^4 cells per plate (10^6 cells/ml)
Procedure: as §1

[3] = tested on: Staphylococcus aureus F-19 (Penicillinase-producing bacterium); assay: MIC by plate method; format: cell-based; set-up: unit not given here; settings: Heart Infusion agar pH 7.4, inoculum 10^4 cells per plate (10^6 cells/ml)
Procedure: as §1

[4] = tested on: Klebsiella pneumoniae Y-50; assay: MIC by plate method; format: cell-based; set-up: unit not given here; settings: Heart Infusion agar pH 7.4, inoculum 10^4 cells per plate (10^6 cells/ml)
Procedure: as §1

[5] = tested on: Enterobacter cloacae IID 977; assay: MIC by plate method; format: cell-based; set-up: unit not given here; settings: Heart Infusion agar pH 7.4, inoculum 10^4 cells per plate (10^6 cells/ml)
Procedure: as §1

[6] = tested on: Pseudomonas aeruginosa IFO-3445; assay: MIC by plate method; format: cell-based; set-up: unit not given here; settings: Heart Infusion agar pH 7.4, inoculum 10^4 cells per plate (10^6 cells/ml)
Procedure: as §1

[7] = tested on: Acinetobacter calcoaceticus A-6; assay: MIC by plate method; format: cell-based; settings: Heart Infusion agar pH 7.4, inoculum 10^4 cells per plate (10^6 cells/ml)
Procedure: as §1

[8] = tested on: Citrobacter spp Toyama Citizen No. 31; assay: MIC by plate method; format: cell-based; settings: Heart Infusion agar pH 7.4, inoculum 10^4 cells per plate (10^6 cells/ml)
Procedure: as §1

[9] = tested on: Penicillinase E. coli TK-3; assay: Resistance against β-lactamase, iodometric assay; format: biochemical; settings: activity of control potassium Penicillin G assumed as 100
Procedure: (§2) The resistant activity against β-lactamase of the product obtained above was as shown in Table 3 in which comparisons are shown:
(§3) The resistance of each compound against β-lactamase was determined by the iodometric assay method.

[10] = molecular target: T1, Cephalosporinase Serratia W-8 (Serratia marcescens, UniProt P18539); assay: Resistance against β-lactamase, iodometric assay; format: biochemical; settings: activity of control Cephalorigine assumed as 100
T1 construct: W-8; endogenous in cells; host or cells: Serratia W-8
Procedure: as §2, §3

[11] = molecular target: T2, Cephalosporinase Pseudomonas aeruginosa TN 918 (Pseudomonas aeruginosa, UniProt P24735); assay: Resistance against β-lactamase, iodometric assay; format: biochemical; settings: activity of control Cephalorigine assumed as 100
T2 construct: TN 918; endogenous in cells; host or cells: Pseudomonas aeruginosa TN 918
Procedure: as §2, §3

T2 sequence (P24735 27-397): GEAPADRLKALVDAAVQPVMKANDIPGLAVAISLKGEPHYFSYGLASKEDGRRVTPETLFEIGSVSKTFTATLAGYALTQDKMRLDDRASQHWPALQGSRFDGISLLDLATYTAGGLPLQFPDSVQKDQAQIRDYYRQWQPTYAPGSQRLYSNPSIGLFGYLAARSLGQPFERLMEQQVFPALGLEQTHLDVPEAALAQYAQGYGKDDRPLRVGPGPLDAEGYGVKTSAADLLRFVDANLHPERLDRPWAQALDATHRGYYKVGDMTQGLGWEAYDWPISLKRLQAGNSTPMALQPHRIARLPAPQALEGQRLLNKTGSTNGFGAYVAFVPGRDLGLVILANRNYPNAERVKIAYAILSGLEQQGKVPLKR
T1 sequence (P18539 22-376): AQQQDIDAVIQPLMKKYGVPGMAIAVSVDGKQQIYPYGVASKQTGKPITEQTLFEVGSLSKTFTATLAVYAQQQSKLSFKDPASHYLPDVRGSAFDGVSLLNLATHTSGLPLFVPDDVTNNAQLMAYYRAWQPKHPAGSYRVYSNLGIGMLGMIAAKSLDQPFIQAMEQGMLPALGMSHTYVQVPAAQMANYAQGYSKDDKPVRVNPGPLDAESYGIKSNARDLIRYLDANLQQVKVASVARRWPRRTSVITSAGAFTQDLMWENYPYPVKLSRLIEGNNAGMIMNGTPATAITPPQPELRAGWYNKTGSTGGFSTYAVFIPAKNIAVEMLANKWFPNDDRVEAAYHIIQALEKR

minimum inhibitory concentration (MIC) [1]	minimum inhibitory concentration (MIC) (Escherichia coli NIHJ)	minimum inhibitory concentration (MIC) (Serratia marcescens W-8)	minimum inhibitory concentration (MIC) [2]	minimum inhibitory concentration (MIC) [3]	minimum inhibitory concentration (MIC) [4]	minimum inhibitory concentration (MIC) [5]	minimum inhibitory concentration (MIC) [6]	minimum inhibitory concentration (MIC) [7]	minimum inhibitory concentration (MIC) [8]	SMILES	relative activity value, Penicillinase E. coli TK-3 [9]	relative activity value, Cephalosporinase Serratia W-8 [10]	relative activity value, Cephalosporinase Pseudomonas aeruginosa TN 918 [11]
0.39	≤ 0.1	100	100	6.25	0.2	100	6.25	6.25	1.56	CCN1CCN(C(=O)N[C@@H](C(=O)N[C@]2(OC)C(=O)N3C(C(=O)O)=C(CSc4nnnn4C)CS[C@@H]32)c2ccc(O)cc2)C(=O)C1=O [Compound No. 2, 7β-[D(-)-α-(4-ethyl-2,3-dioxo-1-piperazinylcarbonylamino)-p-hydroxyphenylacetamido]-7α-methoxy-3-[5-(1-methyl-1,2,3,4-tetrazolyl)thiomethyl]-Δ^3-cephem-4-carboxylic acid]	–	–	–
3.13	≤ 0.1	200	> 200	12.5	1.56	100	100	25	6.25	CCN1CCN(C(=O)N[C@@H](C(=O)N[C@]2(OC)C(=O)N3C(C(=O)O)=C(CSc4nnc(C)s4)CS[C@@H]32)c2ccccc2)C(=O)C1=O [Compound No. 3, 7β-[D(-)-α-(4-ethyl-2,3-dioxo-1-piperazinylcarbonylamino)phenylacetamido]-7α-methoxy-3-[2-(5-methyl-1,3,4-thiadiazolyl)thiomethyl]-Δ^3-cephem-4-carboxylic acid]	–	–	–
–	–	–	–	–	–	–	–	–	–	O=C(Cc1cccs1)N[C@@H]1C(=O)N2C(C(=O)[O-])=C(C[n+]3ccccc3)CS[C@H]12 [Cephalorigine]	115	100	100
–	–	–	–	–	–	–	–	–	–	CC1(C)S[C@@H]2[C@H](NC(=O)Cc3ccccc3)C(=O)N2[C@H]1C(=O)O [Potassium Penicillin G]	100	21	16
0.78	≤ 0.1	50	100	6.25	0.78	25	12.5	12.5	1.56	CCN1CCN(C(=O)N[C@@H](C(=O)N[C@]2(OC)C(=O)N3C(C(=O)O)=C(CSc4nnnn4C)CS[C@@H]32)c2ccccc2)C(=O)C1=O [Compound No. 1, 7β-[D(-)-α-(4-ethyl-2,3-dioxo-1-piperazinylcarbonylamino)phenylacetamido]-7α-methoxy-3-[5-(1-methyl-1,2,3,4-tetrazolyl)thiomethyl]-Δ^3-cephem-4-carboxylic acid]	–	–	–

SMILES	minimum inhibitory concentration (MIC) [1]	minimum inhibitory concentration (MIC) (Escherichia coli NIHJ)	minimum inhibitory concentration (MIC) (Serratia marcescens W-8)	minimum inhibitory concentration (MIC) [2]	minimum inhibitory concentration (MIC) [3]	minimum inhibitory concentration (MIC) [4]	minimum inhibitory concentration (MIC) [5]	minimum inhibitory concentration (MIC) [6]	minimum inhibitory concentration (MIC) [7]	minimum inhibitory concentration (MIC) [8]	relative activity value, Penicillinase E. coli TK-3 [9]	relative activity value, Cephalosporinase Serratia W-8 [10]	relative activity value, Cephalosporinase Pseudomonas aeruginosa TN 918 [11]
CCN1CCN(C(=O)N[C@@H](C(=O)N[C@]2(OC)C(=O)N3C(C(=O)O)=C(COC(C)=O)CS[C@@H]32)c2ccc(O)cc2)C(=O)C1=O [Compound No. 5, 7β-[D(-)-α-(4-ethyl-2,3-dioxo-1-piperazinylcarbonylamino)-p-hydroxyphenylacetamido]-7α-methoxy-3-acetoxymethyl-Δ^3-cephem-4-carboxylic acid]	3.13	≤ 0.1	200	25	25	0.78	100	12.5	–	–	–	–	–
CCN1CCN(C(=O)N[C@@H](C(=O)N[C@]2(OC)C(=O)N3C(C(=O)O)=C(COC(C)=O)CS[C@@H]32)c2ccccc2)C(=O)C1=O [Compound No. 4, 7β-[D(-)-α-(4-ethyl-2,3-dioxo-1-piperazinylcarbonylamino)phenylacetamido]-7α-methoxy-3-acetoxymethyl-Δ^3-cephem-4-carboxylic acid]	1.56	≤ 0.1	200	–	12.5	1.56	100	50	–	–	< 0.04	< 0.06	< 0.4
